Laboratory results as given in patent US20260335323A1, “CHIMERIC MOLECULE” (UCL Business Ltd, priority 2023, published 2026).

Tests used:
[1] = system: c-MYC; experiment: c-MYC immunofluorescence in hTERT-cMYC-ER expressing RPE1 cells; format: cell-based, human; settings: 100 nM, 72 hours, with 4-OHT
Description: FIG. 9. (A) Schematic representation of hTERT-cMYC-ER expressing RPE1 cells. Treatment with 4-hydroxytamoxifen (4-OHT) translocates c-MYC-ER from the cytoplasm into the nucleus, simulating oncogenic c-MYC. (B) Immunofluorescence images of hTERT-cMYC-ER expressing RPE1 cells treated with DMSO, (+)-JQ1 or NZ-147 at 100 nM for 72 hours, each with or without 4-OHT.
RPE1-hTERT-c-MYC-ER cells were seeded in a 384 well PerkinElmer CellCarrier Ultra plate. In Example 8, cells were treated for 72 hours with DMSO, (+)-JQ1±4-OHT, or, NZ-147±4-OHT. In Example 9, cells were treated for 72 hours with 4-OHT, NZ-175, both, or neither. Thereafter, in both Examples 8 and 9, cells were fixed with 4% paraformaldehyde (PFA) in phosphate buffered saline (PBS) and blocked with 10% FBS and 0.1% Triton in PBS. Plates were incubated at 4° C. overnight, with 1:500 rabbit anti-c-MYC (D84C12) rabbit monoclonal antibody (#5605, Cell Signalling Technologies). The following day, plates were incubated with 1:1000 goat anti-rabbit Alexa 488 (ThermoFisher Scientific, #A-11008) and 1.62 μM Hoechst 33342 at room temperature for 1 hour before imaging. Excitation and emission spectra for each channel are as follows: Hoechst 33342=405/435-480 nm, Alexa 488=488/500-550 nm. Images were acquired at 40× and 63× magnification with water immersion lens.

[2] = system: H1299 cells; experiment: Colony formation assay, H1299; format: cell-based, human
Description: A549 and H1299 cells were seeded in 12 well plates at approximately 100 cells per well. In Example 8, wells were treated with DMSO, (+)-JQ1 or NZ-147. In Example 9, cells were treated with DMSO or NZ-175. Colonies were allowed to form over 120 h. Cells were fixed and stained with crystal violet staining solution, prepared in 70% ethanol.
A colony formation assay was performed in A549 and H1299 cells, which were treated with DMSO, (+)-JQ1 or NZ-147 at 100 nM for 72 hours and stained with crystal violet (FIG. 10A).
A colony formation assay was performed in A549 and H1299 cells, which were treated with DMSO or NZ-175 at 100 nM for 72 hours and stained with crystal violet (FIG. 16A).

[3] = system: MAX; experiment: Western blot, MAX levels in CAL51 cells; format: cell-based, human; settings: 100 nM, 72 hours
Description: (§1) All treatments with (+)-JQ1, NZ-147 or NZ-175 were performed at 100 nM concentration over 72 hours.
(§2) Cells were homogenised in protein lysis buffer consisting of 0.1 M Tris pH 8.0, 0.1 M NaCl, 5% glycerol, IGEPAL® CA-630 (#18896. Sigma-Aldrich) and 5 mM EDTA, 0.1 M N-ethyl maleimide (ThermoFisher, #23030) and protease inhibitor (Cell Signalling Technologies, #5871). Protein concentrations were determined using the BCA assay to ensure equal loading. […] The membranes were immunoblotted with primary antibodies, overnight at 4° C. […]
(§3) Membranes were then incubated with horseradish peroxidase (HRP)-conjugated secondary antibodies (Rabbit #7074 and Mouse #7076) purchased from Cell Signalling Technologies for 1 hour and the HRP signal was detected using EZ-ECL Enhanced Chemiluminescence Detection Kit for HRP (#20-500-500, Sartorius), and imaged with an Alliance Q9 Advanced (UVITec). […]
(§4) We generated a BRD4-ULKTAC (NZ-147) by conjugating (+)-JQ1 (BRD4-targeting moiety) to NZ-60 via a PEG linker (FIG. 8A). CAL51 cells (a triple negative breast cancer cell line) were treated with DMSO, (+)-JQ1 or NZ-147 at 100 nM for 72 hours then lysed and analysed by Western blot (FIG. 8B). […]

[4] = target: T1, BRD4 (Homo sapiens, UniProt O60885); experiment: Western blot, BRD4 levels in CAL51 cells; format: cell-based; settings: 100 nM, 72 hours
T1 construct: Western blot (antibody CST #13440)
Description: as §1, §2, §3, §4

[5] = system: c-MYC; experiment: Western blot, c-MYC levels in CAL51 cells; format: cell-based, human; settings: 100 nM, 72 hours
Description: as §1, §2, §3, §4

For Cc1sc2c(c1C)C(c1ccc(Cl)cc1)=N[C@@H](CC(=O)NCCOCCOCCOCCn1cc(COc3ccc([C@@H](NC(=O)Nc4cc(C(F)(F)F)cc(C(F)(F)F)c4)C(=O)Nc4ccc(F)cc4F)cc3)nn1)c1nnc(C)n1-2 [NZ-147, (R)-2-(3-(3,5-bis(trifluoromethyl)phenyl)ureido)-2-(4-((1-(1-((S)-4-(4-chlorophenyl)-2,3,9-trimethyl-6H-thieno[3,2-f][1,2,4]triazolo[4,3-a][1,4]diazepin-6-yl)-2-oxo-6,9, 12-trioxa-3-azatetradecan-14-yl)-1H-1,2,3-triazol-4-yl)methoxy)phenyl)-N-(2,4-difluorophenyl) acetamide], the “nuclear c-MYC” value [1] was “may show reduced nuclear c-MYC”, the colony formation ([2]; H1299, 100 nM, 72 hours) was “Fewest colonies formed” and the cell proliferation ([2]; c-MYC-amplified cell line H1299) was “reduced cell proliferation, exemplified further in the c-MYC-amplified cell line H1299”. For the same molecule, the “levels of MAX” value [3] was “reduced”, the “levels of BRD4” value [4] was “reduced” and the “levels of c-MYC” value [5] was “reduced”.
